Laboratory results as given in ChEMBL document CHEMBL5723586, “Data for DCP probe BI-1915” (2024).
Blank lines part the entries; values can stand above or below the compound they belong to. The source made the active and inactive calls. The rule behind the calls is not given here.

Tests used:
[1] = target: 5-hydroxytryptamine receptor 1B (Homo sapiens) (UniProt P28222); experiment: 5-HT1B Eurofins-Cerep binding assay; set-up: ligand concentration 1 nM; conditions: Compound concentration 10.0 uM
[2] = target: Cannabinoid receptor 1 (Homo sapiens) (UniProt P21554); experiment: CB1 Eurofins-Cerep binding assay; conditions: Compound concentration 10.0 uM
[3] = target: Prostaglandin G/H synthase 1 (Homo sapiens) (UniProt P23219); experiment: Inhibitor of COX-1 in the Eurofins Cerep SafetyScreen44 (BI) by Fluorimetry (Cerep_4173); conditions: Compound concentration 10.0 uM
[4] = target: Prostaglandin G/H synthase 2 (Homo sapiens) (UniProt P35354); experiment: Inhibitor of COX-2 in the Eurofins Cerep SafetyScreen44 (BI) by Fluorimetry (Cerep_4186); conditions: Compound concentration 10.0 uM
[5] = target: Kappa-type opioid receptor (Homo sapiens) (UniProt P41145); experiment: kappa (KOP) Eurofins-Cerep binding assay; conditions: Compound concentration 10.0 uM
[6] = target: 5-hydroxytryptamine receptor 1A (Homo sapiens) (UniProt P08908); experiment: 5-HT1A Eurofins-Cerep binding assay; set-up: ligand concentration 0.5 nM; conditions: Compound concentration 10.0 uM
[7] = target: 5-hydroxytryptamine receptor 2A (Homo sapiens) (UniProt P28223); experiment: Agonist activity in the Eurofins Cerep SafetyScreen44 (BI) against 5HT2AH_AGON by Scintillation counting (Cerep_471); conditions: Compound concentration 10.0 uM
[8] = target: 5-hydroxytryptamine receptor 2B (Homo sapiens) (UniProt P41595); experiment: 5-HT2B Eurofins-Cerep binding assay; conditions: Compound concentration 10.0 uM
[9] = target: 5-hydroxytryptamine receptor 3A (Homo sapiens) (UniProt P46098); experiment: 5-HT3 Eurofins-Cerep binding assay; set-up: ligand concentration 0.5 nM; conditions: Compound concentration 10.0 uM
[10] = target: Adenosine receptor A2a (Homo sapiens) (UniProt P29274); experiment: A2A Eurofins-Cerep binding assay; set-up: ligand concentration 6 nM; conditions: Compound concentration 10.0 uM
[11] = target: Angiotensin-converting enzyme (Homo sapiens) (UniProt P12821); experiment: Activity against ACE(HU_AMTCH400) in the Eurofins Cerep SafetyScreen44 (BI) by Photometry (Cerep_3441); conditions: Compound concentration 10.0 uM
[12] = target: Alpha-1A adrenergic receptor (Homo sapiens) (UniProt P35348); experiment: Agonist activity in the Eurofins Cerep SafetyScreen44 (BI) against ALPHA1AH_ANTAG by Scintillation counting (Cerep_2338); conditions: Compound concentration 10.0 uM
[13] = target: Alpha-2A adrenergic receptor (Homo sapiens) (UniProt P08913); experiment: Inhibitor of ALPHA2A/HU in the Eurofins Cerep SafetyScreen44 (BI) by Radioactive Assay (Cerep_13); conditions: Compound concentration 10.0 uM
[14] = target: Beta-1 adrenergic receptor (Homo sapiens) (UniProt P08588); experiment: beta 1 Eurofins-Cerep binding assay; set-up: ligand concentration 0.3 nM; conditions: Compound concentration 10.0 uM
[15] = target: Beta-2 adrenergic receptor (Homo sapiens) (UniProt P07550); experiment: beta 2 Eurofins-Cerep binding assay; conditions: Compound concentration 10.0 uM
Rattus norvegicus [16] = organism: Rattus norvegicus; experiment: Activity against BZD/CENTR/R in the Eurofins Cerep SafetyScreen44 (BI) by Radioactive Assay (Cerep_28); assay type: protein-complex assay; conditions: Compound concentration 10.0 uM
[17] = target: L-type calcium channel (dihydropyridine site), Cav1.2 alpha-1C (Rattus norvegicus, UniProt P22002); experiment: Inhibitor of CA+/DHPSI/R in the Eurofins Cerep SafetyScreen44 (BI) by Radioactive Assay (Cerep_161); assay type: protein assay; set-up: scale not given: the % may be the effect or the level left; conditions: rat brain, probe [3H](+)PN200-110, compound concentration 10 uM, read-out: % Ctrl
[18] = target: Cannabinoid receptor 2 (Homo sapiens) (UniProt P34972); experiment: Activity against CB2/PERIPH/H in the Eurofins Cerep SafetyScreen44 (BI) by Radioactive Assay (Cerep_37); conditions: Compound concentration 10.0 uM
[19] = target: Cholecystokinin receptor type A (Homo sapiens) (UniProt P32238); experiment: CCK1 (CCKA) Eurofins-Cerep binding assay; set-up: ligand concentration 0.08 nM; conditions: Compound concentration 10.0 uM
[20] = target: D(1A) dopamine receptor (Homo sapiens) (UniProt P21728); experiment: D1 Eurofins-Cerep binding assay; set-up: ligand concentration 0.3 nM; conditions: Compound concentration 10.0 uM
[21] = target: D(2) dopamine receptor (Homo sapiens) (UniProt P14416); experiment: Agonist activity in the Eurofins Cerep SafetyScreen44 (BI) against D2SH_AGON by Scintillation counting (Cerep_1322); conditions: Compound concentration 10.0 uM
[22] = target: Sodium-dependent dopamine transporter (Homo sapiens) (UniProt Q01959); experiment: dopamine transporter Eurofins-Cerep binding assay; conditions: Compound concentration 10.0 uM
[23] = target: Delta-type opioid receptor (Homo sapiens) (UniProt P41143); experiment: delta (DOP) Eurofins-Cerep binding assay; set-up: ligand concentration 0.5 nM; conditions: Compound concentration 10.0 uM
[24] = target: Endothelin-1 receptor (Homo sapiens) (UniProt P25101); experiment: ETA Eurofins-Cerep binding assay; set-up: ligand concentration 0.03 nM; conditions: Compound concentration 10.0 uM
[25] = target: Glucocorticoid receptor (Homo sapiens) (UniProt P04150); experiment: GR Eurofins-Cerep binding assay; conditions: Compound concentration 10.0 uM
[26] = target: Histamine H1 receptor (Homo sapiens) (UniProt P35367); experiment: H1 Eurofins-Cerep binding assay; set-up: ligand concentration 1 nM; conditions: Compound concentration 10.0 uM
[27] = target: Histamine H2 receptor (Homo sapiens) (UniProt P25021); experiment: H2 Eurofins-Cerep binding assay; set-up: ligand concentration 0.075 nM; conditions: Compound concentration 10.0 uM
hERG (KCNH2) = hERG (KCNH2) (Homo sapiens, UniProt Q12809); experiment: Inhibitor of HERG_DOFETILIDE in the Eurofins Cerep SafetyScreen44 (BI) by Scintillation counting (Cerep_4094); set-up: scale not given: the % may be the effect or the level left; conditions: probe [3H] Dofetilide, compound concentration 10 uM, read-out: % Ctrl
Rattus norvegicus [28] = organism: Rattus norvegicus; experiment: KV channel Eurofins-Cerep binding assay; set-up: ligand concentration 0.01 nM; conditions: Compound concentration 10.0 uM
[29] = target: Tyrosine-protein kinase Lck (Homo sapiens) (UniProt P06239); experiment: Inhibitor of LCK_CE in the Eurofins Cerep SafetyScreen44 (BI) by lanthanide chelation excitation (Cerep_2906); conditions: Compound concentration 10.0 uM
[30] = target: Muscarinic acetylcholine receptor M1 (Homo sapiens) (UniProt P11229); experiment: M1 Eurofins-Cerep binding assay; set-up: ligand concentration 2 nM; conditions: Compound concentration 10.0 uM
[31] = target: Muscarinic acetylcholine receptor M2 (Homo sapiens) (UniProt P08172); experiment: M2 Eurofins-Cerep binding assay; set-up: ligand concentration 2 nM; conditions: Compound concentration 10.0 uM
[32] = target: Muscarinic acetylcholine receptor M3 (Homo sapiens) (UniProt P20309); experiment: M3 Eurofins-Cerep binding assay; set-up: ligand concentration 0.2 nM; conditions: Compound concentration 10.0 uM
[33] = target: MAO-A (amine oxidase [flavin-containing] A) (Homo sapiens, UniProt P21397); experiment: Agonist activity in the Eurofins Cerep SafetyScreen44 (BI) against MAO-A_ANTAG by Scintillation counting (Cerep_443); set-up: scale not given: the % may be the effect or the level left; conditions: rat; compound concentration 10 uM; target entry is the homologue from another species; read-out: % Ctrl
[34] = target: Mu-type opioid receptor (Homo sapiens) (UniProt P35372); experiment: mu (MOP) Eurofins-Cerep binding assay; set-up: ligand concentration 0.5 nM; conditions: Compound concentration 10.0 uM
[35] = target: Sodium-dependent noradrenaline transporter (Homo sapiens) (UniProt P23975); experiment: norepinephrine transporter Eurofins-Cerep binding assay; set-up: ligand concentration 1 nM; conditions: Compound concentration 10.0 uM
[36] = target: Glutamate NMDA receptor (Rattus norvegicus) (UniProt P35439+Q00959+Q00960+Q00961+Q62645+Q8VHN2+Q9R1M7); experiment: Inhibitor of NMDA/R in the Eurofins Cerep SafetyScreen44 (BI) by Radioactive Assay (Cerep_66); assay type: protein-complex assay; conditions: Compound concentration 10.0 uM
Homo sapiens = organism: Homo sapiens; experiment: Agonist activity in the Eurofins Cerep SafetyScreen44 (BI) against N_NEURO_A4B2 by Radioligand Binding (Cerep_3029); assay type: protein-complex assay; conditions: Compound concentration 10.0 uM
[37] = target: cGMP-inhibited 3',5'-cyclic phosphodiesterase 3A (Homo sapiens) (UniProt Q14432); experiment: Inhibitor of PDE3A in the Eurofins Cerep SafetyScreen44 (BI) by HTRF-homogeneous time resolved fluoresce (Cerep_4072); conditions: Compound concentration 10.0 uM
[38] = target: 3',5'-cyclic-AMP phosphodiesterase 4D (Homo sapiens) (UniProt Q08499); experiment: Inhibitor of PDE4D2 in the Eurofins Cerep SafetyScreen44 (BI) by Scintillation counting (Cerep_4077); conditions: Compound concentration 10.0 uM
[39] = target: Sodium-dependent serotonin transporter (Homo sapiens) (UniProt P31645); experiment: 5-HT transporter Eurofins-Cerep binding assay; set-up: ligand concentration 2 nM; conditions: Compound concentration 10.0 uM
[40] = target: Vasopressin V1a receptor (Homo sapiens) (UniProt P37288); experiment: V1a Eurofins-Cerep binding assay; set-up: ligand concentration 0.3 nM; conditions: Compound concentration 10.0 uM
Cathepsin S = Cathepsin S (Homo sapiens, UniProt P25774); experiment: Scintillation proximity assay (CTSS)
Cathepsin K = Cathepsin K (Homo sapiens, UniProt P43235); experiment: Luminescent based enzymatic assay (CTSK)
Procathepsin L = Procathepsin L (Homo sapiens, UniProt P07711); experiment: Luminescent based enzymatic assay (CTSL)
Cathepsin B = Cathepsin B (Homo sapiens, UniProt P07858); experiment: Luminescent based enzymatic assay (CTSB)
[41] = target: Androgen receptor (Homo sapiens) (UniProt P10275); conditions: Compound concentration 10.0 uM
Description: Activity against ANDROGEN/H in the Eurofins Cerep SafetyScreen44 (BI) by Radioactive Assay (Cerep_933)

Sequence of Kappa-type opioid receptor (Homo sapiens) (P41145 whole entry): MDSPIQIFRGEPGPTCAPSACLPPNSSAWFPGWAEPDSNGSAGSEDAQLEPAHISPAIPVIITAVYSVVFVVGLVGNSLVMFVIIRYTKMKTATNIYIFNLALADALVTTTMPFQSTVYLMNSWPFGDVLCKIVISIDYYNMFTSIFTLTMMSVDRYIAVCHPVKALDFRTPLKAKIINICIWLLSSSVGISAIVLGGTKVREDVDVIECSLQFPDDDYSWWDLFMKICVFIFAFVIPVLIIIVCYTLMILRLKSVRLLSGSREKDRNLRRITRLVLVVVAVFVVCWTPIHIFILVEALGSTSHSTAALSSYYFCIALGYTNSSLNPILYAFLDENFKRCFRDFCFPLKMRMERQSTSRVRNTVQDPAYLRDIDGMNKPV
Sequence of Sodium-dependent dopamine transporter (Homo sapiens) (Q01959 whole entry): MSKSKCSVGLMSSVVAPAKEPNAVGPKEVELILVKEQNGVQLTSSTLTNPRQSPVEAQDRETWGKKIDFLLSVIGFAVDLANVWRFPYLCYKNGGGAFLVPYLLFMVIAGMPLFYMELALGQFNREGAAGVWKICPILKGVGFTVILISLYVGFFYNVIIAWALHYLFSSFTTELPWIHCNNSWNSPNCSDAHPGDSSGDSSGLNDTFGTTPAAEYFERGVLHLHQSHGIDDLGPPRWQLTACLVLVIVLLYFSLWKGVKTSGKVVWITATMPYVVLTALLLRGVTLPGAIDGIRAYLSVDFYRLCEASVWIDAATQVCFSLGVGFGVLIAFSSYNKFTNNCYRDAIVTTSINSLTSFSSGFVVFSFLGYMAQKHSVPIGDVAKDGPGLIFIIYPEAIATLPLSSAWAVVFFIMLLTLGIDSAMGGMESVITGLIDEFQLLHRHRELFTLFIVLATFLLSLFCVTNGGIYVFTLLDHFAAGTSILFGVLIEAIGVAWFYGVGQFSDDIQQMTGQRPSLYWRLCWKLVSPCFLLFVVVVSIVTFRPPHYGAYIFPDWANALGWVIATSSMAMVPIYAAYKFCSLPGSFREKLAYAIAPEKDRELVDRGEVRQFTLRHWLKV
Sequence of 5-hydroxytryptamine receptor 1A (Homo sapiens) (P08908 whole entry): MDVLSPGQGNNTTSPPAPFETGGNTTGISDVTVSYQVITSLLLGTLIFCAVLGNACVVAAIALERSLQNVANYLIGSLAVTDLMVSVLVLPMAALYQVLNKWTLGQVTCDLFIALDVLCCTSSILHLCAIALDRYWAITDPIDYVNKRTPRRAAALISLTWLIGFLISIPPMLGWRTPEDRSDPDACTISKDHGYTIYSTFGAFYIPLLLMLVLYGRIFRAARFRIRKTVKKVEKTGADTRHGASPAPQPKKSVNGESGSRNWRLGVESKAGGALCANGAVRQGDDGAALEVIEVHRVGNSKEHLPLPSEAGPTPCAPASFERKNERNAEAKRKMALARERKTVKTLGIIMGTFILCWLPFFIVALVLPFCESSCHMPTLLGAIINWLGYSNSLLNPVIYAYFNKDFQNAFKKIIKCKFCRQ
Sequence of Angiotensin-converting enzyme (Homo sapiens) (P12821 whole entry): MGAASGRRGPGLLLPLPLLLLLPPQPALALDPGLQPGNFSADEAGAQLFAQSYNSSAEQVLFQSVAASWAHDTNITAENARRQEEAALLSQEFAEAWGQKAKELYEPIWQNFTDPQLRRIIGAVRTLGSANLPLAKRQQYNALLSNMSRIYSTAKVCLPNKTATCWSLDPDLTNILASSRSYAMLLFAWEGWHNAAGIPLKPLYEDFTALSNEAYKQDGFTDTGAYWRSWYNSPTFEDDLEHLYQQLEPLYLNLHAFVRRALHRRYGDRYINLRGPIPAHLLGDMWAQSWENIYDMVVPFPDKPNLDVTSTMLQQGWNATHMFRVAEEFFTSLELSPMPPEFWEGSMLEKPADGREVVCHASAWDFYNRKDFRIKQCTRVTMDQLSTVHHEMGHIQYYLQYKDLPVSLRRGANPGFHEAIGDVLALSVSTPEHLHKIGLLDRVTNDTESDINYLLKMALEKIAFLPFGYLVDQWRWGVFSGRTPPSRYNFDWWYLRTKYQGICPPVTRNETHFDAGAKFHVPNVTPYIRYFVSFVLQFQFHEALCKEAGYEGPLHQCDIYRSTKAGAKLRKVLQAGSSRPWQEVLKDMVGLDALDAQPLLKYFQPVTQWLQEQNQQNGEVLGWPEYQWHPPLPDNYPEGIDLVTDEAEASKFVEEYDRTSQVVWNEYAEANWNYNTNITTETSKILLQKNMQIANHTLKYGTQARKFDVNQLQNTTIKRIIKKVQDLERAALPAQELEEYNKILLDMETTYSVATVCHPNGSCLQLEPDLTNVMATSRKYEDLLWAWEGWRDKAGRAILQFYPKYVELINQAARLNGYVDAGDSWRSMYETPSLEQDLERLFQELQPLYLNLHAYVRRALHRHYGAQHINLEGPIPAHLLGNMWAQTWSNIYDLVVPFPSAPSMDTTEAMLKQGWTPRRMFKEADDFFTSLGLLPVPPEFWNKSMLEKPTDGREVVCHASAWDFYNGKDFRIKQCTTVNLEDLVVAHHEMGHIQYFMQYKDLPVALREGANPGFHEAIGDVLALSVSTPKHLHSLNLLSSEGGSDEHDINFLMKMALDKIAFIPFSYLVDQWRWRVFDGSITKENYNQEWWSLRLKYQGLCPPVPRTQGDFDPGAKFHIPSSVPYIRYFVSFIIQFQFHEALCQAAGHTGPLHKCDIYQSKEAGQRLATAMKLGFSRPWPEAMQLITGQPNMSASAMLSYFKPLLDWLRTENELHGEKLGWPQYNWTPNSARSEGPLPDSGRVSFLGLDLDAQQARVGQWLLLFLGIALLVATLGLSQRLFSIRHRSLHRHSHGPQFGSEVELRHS
Sequence of 3',5'-cyclic-AMP phosphodiesterase 4D (Homo sapiens) (Q08499 whole entry): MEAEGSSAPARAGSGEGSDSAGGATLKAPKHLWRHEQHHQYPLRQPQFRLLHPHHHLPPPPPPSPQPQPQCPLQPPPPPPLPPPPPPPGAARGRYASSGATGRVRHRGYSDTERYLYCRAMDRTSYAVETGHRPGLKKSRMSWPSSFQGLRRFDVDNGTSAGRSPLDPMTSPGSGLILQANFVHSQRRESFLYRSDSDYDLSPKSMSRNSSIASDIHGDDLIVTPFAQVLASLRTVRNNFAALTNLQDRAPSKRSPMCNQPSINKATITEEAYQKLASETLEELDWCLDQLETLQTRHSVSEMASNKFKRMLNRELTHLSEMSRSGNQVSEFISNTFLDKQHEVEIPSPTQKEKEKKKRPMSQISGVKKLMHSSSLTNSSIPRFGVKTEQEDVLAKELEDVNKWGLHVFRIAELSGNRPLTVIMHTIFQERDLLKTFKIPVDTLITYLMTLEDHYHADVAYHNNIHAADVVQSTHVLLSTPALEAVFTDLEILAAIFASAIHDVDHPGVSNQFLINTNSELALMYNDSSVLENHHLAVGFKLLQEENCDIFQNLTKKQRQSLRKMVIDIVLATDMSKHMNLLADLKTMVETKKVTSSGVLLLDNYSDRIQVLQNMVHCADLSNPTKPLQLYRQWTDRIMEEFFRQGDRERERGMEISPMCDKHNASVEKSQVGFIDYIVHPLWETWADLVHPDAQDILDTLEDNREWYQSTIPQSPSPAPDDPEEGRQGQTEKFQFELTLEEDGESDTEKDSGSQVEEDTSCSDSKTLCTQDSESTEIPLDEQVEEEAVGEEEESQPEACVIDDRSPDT
Sequence of Muscarinic acetylcholine receptor M2 (Homo sapiens) (P08172 whole entry): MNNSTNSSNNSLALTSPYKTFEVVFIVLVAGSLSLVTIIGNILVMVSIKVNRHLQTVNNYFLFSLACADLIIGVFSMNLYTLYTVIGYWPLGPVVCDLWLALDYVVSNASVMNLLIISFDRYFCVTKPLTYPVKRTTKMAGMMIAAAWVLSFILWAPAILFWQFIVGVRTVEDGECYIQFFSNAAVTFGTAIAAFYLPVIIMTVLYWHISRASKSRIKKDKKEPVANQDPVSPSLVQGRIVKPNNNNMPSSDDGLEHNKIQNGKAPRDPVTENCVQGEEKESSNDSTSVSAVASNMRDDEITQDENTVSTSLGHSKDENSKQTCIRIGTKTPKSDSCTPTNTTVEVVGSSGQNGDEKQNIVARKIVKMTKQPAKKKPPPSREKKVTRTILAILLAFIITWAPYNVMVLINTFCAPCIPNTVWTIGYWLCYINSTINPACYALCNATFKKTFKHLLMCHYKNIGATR
Sequence of Sodium-dependent serotonin transporter (Homo sapiens) (P31645 whole entry, looked up): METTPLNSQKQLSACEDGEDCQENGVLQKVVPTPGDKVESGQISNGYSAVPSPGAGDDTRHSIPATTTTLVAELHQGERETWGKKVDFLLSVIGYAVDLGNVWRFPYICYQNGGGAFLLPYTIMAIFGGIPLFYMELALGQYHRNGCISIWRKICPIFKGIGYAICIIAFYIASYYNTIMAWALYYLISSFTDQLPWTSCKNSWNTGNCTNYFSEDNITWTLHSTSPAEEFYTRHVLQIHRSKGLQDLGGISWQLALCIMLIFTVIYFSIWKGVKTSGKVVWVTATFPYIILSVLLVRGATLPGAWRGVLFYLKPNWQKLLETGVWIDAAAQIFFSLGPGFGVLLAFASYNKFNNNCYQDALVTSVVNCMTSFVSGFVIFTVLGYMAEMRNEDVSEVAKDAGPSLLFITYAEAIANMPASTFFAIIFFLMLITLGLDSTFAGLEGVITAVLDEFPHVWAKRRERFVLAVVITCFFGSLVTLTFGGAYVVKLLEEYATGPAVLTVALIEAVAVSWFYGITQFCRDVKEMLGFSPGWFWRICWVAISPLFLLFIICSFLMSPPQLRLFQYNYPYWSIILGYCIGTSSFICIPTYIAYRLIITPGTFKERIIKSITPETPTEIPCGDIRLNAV
Sequence of Cannabinoid receptor 2 (Homo sapiens) (P34972 whole entry): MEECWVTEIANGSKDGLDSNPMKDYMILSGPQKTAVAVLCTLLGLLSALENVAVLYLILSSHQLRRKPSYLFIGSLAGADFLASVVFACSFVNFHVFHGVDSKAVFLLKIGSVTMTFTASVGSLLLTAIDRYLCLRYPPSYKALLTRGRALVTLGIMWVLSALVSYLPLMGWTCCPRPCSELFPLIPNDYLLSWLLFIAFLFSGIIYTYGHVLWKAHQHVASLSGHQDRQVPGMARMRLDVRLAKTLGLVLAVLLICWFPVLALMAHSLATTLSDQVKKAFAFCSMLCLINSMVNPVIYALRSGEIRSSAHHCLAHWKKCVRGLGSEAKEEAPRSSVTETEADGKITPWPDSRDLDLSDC

residual activity [1]: 92.5% | residual activity [2]: 116% | residual activity [5]: 84.5% | residual activity [6]: 104% | residual activity [8]: 118% | residual activity [9]: 100% | residual activity [10]: 102% | residual activity [14]: 101% | residual activity [15]: 103% | residual activity [19]: 88% | residual activity [20]: 94% | residual activity [22]: 98.5% | residual activity [23]: 92.5% | residual activity [24]: 106% | residual activity [25]: 102% | residual activity [26]: 101% | residual activity [27]: 106% | residual activity (Rattus norvegicus [28]): 109% | residual activity [30]: 105% | residual activity [31]: 106% | residual activity [32]: 106% | residual activity [34]: 81% | residual activity [35]: 103% | residual activity [39]: 106% | residual activity [40]: 92.5% | Kd (Cathepsin S): 0.031 µM (active) | IC50 (Cathepsin K): > 10 µM (not active) | IC50 (Procathepsin L): > 30 µM (not active) | IC50 (Cathepsin B): > 10 µM (not active) | residual activity [41]: 107%
Structure (SMILES): CCC(C)(C)CC[C@H](NC(=O)N1CCOCC1)C(=O)NC1(C#N)CCN(C)CC1
residual activity [3]: 112% | residual activity [4]: 104% | residual activity [7]: 104% | residual activity [11]: 98.5% | residual activity [12]: 110% | residual activity [13]: 97% | residual activity (Rattus norvegicus [16]): 114% | activity at 10 µM [17]: 106% (not active) | residual activity [18]: 106% | residual activity [21]: 106% | activity at 10 µM (hERG (KCNH2)): 100% (not active) | residual activity [29]: 96.5% | activity at 10 µM [33]: 108% (not active) | residual activity [36]: 106% | residual activity (Homo sapiens): 114% | residual activity [37]: 103% | residual activity [38]: 100%

residual activity [1]: 61% | residual activity [2]: 112% | residual activity [5]: 96% | residual activity [6]: 97% | residual activity [8]: 117% | residual activity [9]: 97% | residual activity [10]: 87% | residual activity [14]: 97% | residual activity [15]: 92% | residual activity [19]: 96% | residual activity [20]: 105% | residual activity [22]: 105% | residual activity [23]: 106% | residual activity [24]: 112% | residual activity [25]: 105% | residual activity [26]: 106% | residual activity [27]: 92% | residual activity (Rattus norvegicus [28]): 110% | residual activity [30]: 108% | residual activity [31]: 125% | residual activity [32]: 112% | residual activity [34]: 96% | residual activity [35]: 120% | residual activity [39]: 106% | residual activity [40]: 94% | residual activity [41]: 110%
Structure (SMILES): CN1CCC(C#N)(NC(=O)[C@@H](NC(=O)N2CCOCC2)C(C)(C)C)CC1
residual activity [3]: 108% | residual activity [4]: 90% | residual activity [7]: 123% | residual activity [11]: 105% | residual activity [12]: 104% | residual activity [13]: 80% | residual activity (Rattus norvegicus [16]): 111% | activity at 10 µM [17]: 115% (not active) | residual activity [18]: 109% | residual activity [21]: 107% | activity at 10 µM (hERG (KCNH2)): 98% (not active) | residual activity [29]: 99% | activity at 10 µM [33]: 105% (not active) | residual activity [36]: 92% | residual activity (Homo sapiens): 98% | residual activity [37]: 88% | residual activity [38]: 105%
